Measurements from patent publication US3949090A, “Methods and compositions for improving feed efficiency in ruminants using dithiooxamide” (SmithKline Corporation, priority 1974, dated 1976).

Test system: animals
Test: Toxicity statement (animals)
Conditions: when used as described

NC(=S)C(N)=S [Dithiooxamide, dithiooxamide]
toxicity (in words): relatively nontoxic
